Assay results from patent US10131652B2, “Pyrimidinyloxy benzene derivatives as herbicides” (E. I. DU PONT DE NEMOURS AND COMPANY, priority 2014, dated 2018).
Read-outs that look alike come from different tables or passages of the source.

Legend:
Assay type in all cases: in vivo
[1] = test system: pigweed (Amaranthus retroflexus); test: Test E pre-/postemergence plant response; conditions: scale 0 to 100, read-out: Plant response rating, Pigweed; for pest or weed control at 16 g/ha: 16 g ai/ha; for pest or weed control at 31 g/ha: 31 g ai/ha; for pest or weed control at 62 g/ha: 62 g ai/ha; for pest or weed control at 125 g/ha: 125 g ai/ha
Procedure, shortened: (§1)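 Pre-emergence: seeds sown in silt loam soil and sprayed with test chemicals in a non-phytotoxic solvent/surfactant mix. Post-emergence: plants at 2–18 cm (1- to 4-leaf stage) in peat/vermiculite medium treated with the same formulation. Visual rating versus controls after 7–21 days, 0 (no effect) to 100 (complete control).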

[2] = test system: wild mustard (Sinapis arvensis); test: Test E pre-/postemergence plant response; conditions: Brassica, scale 0 to 100, read-out: Plant response rating, Mustard, Wild; for pest or weed control at 16 g/ha: 16 g ai/ha; for pest or weed control at 31 g/ha: 31 g ai/ha; for pest or weed control at 62 g/ha: 62 g ai/ha; for pest or weed control at 125 g/ha: 125 g ai/ha
Procedure, shortened: as §1

[3] = test system: green foxtail (Setaria viridis); test: Test E pre-/postemergence plant response; conditions: scale 0 to 100, read-out: Plant response rating, Foxtail, Green; for pest or weed control at 16 g/ha: 16 g ai/ha; for pest or weed control at 31 g/ha: 31 g ai/ha; for pest or weed control at 62 g/ha: 62 g ai/ha; for pest or weed control at 125 g/ha: 125 g ai/ha
Procedure, shortened: as §1

[4] = test system: chamomile (scentless chamomile, Matricaria inodora); test: Test E pre-/postemergence plant response; conditions: Tripleurospermum inodorum, scale 0 to 100, read-out: Plant response rating, Chamomile; for pest or weed control at 16 g/ha: 16 g ai/ha; for pest or weed control at 31 g/ha: 31 g ai/ha; for pest or weed control at 62 g/ha: 62 g ai/ha; for pest or weed control at 125 g/ha: 125 g ai/ha
Procedure, shortened: as §1

[5] = test system: Horseweed; test: Test F postemergence plant response; conditions: scale 0 to 100

SMILES | pest or weed control at 16 g/ha ([1]; post-emergence, Postemergence) | pest or weed control at 31 g/ha ([1]; post-emergence, Postemergence) | pest or weed control at 62 g/ha ([1]; post-emergence, Postemergence) | pest or weed control at 125 g/ha ([1]; post-emergence, Postemergence) | pest or weed control at 16 g/ha ([1]; pre-emergence, Preemergence) | pest or weed control at 31 g/ha ([1]; pre-emergence, Preemergence) | pest or weed control at 62 g/ha ([1]; pre-emergence, Preemergence) | pest or weed control at 125 g/ha ([1]; pre-emergence, Preemergence) | pest or weed control at 16 g/ha ([2]; post-emergence, Postemergence) | pest or weed control at 31 g/ha ([2]; post-emergence, Postemergence) | pest or weed control at 62 g/ha ([2]; post-emergence, Postemergence) | pest or weed control at 125 g/ha ([2]; post-emergence, Postemergence) | pest or weed control at 16 g/ha ([2]; pre-emergence, Preemergence) | pest or weed control at 31 g/ha ([2]; pre-emergence, Preemergence) | pest or weed control at 62 g/ha ([2]; pre-emergence, Preemergence) | pest or weed control at 125 g/ha ([2]; pre-emergence, Preemergence) | Plant response rating, Horseweed ([5]; 16 g ai/ha Postemergence) | Plant response rating, Horseweed ([5]; 31 g ai/ha Postemergence) | Plant response rating, Horseweed ([5]; 62 g ai/ha Postemergence) | Plant response rating, Horseweed ([5]; 125 g ai/ha Postemergence) | also measured
FC(F)c1cc(-c2ccccc2Oc2ncc(Cl)cn2)on1 [Compound 53, 5-chloro-2-[2-[3-(difluoromethyl)-5-isoxazolyl]phenoxy]pyrimidine] | 85% | 85% | 90% | 90% | 30% | 20% | 100% | 100% | 65% | 75% | 95% | 95% | 90% | 100% | 100% | 100% | – | – | – | – | pest or weed control at 16 g/ha ([3]; post-emergence, Postemergence): 10%; pest or weed control at 31 g/ha ([3]; post-emergence, Postemergence): 10%; pest or weed control at 62 g/ha ([3]; post-emergence, Postemergence): 10%; pest or weed control at 125 g/ha ([3]; post-emergence, Postemergence): 25%; pest or weed control at 16 g/ha ([3]; pre-emergence, Preemergence): 10%; pest or weed control at 31 g/ha ([3]; pre-emergence, Preemergence): 10%; pest or weed control at 62 g/ha ([3]; pre-emergence, Preemergence): 20%; pest or weed control at 125 g/ha ([3]; pre-emergence, Preemergence): 55%; pest or weed control at 16 g/ha ([4]; post-emergence, Postemergence): 5%; pest or weed control at 31 g/ha ([4]; post-emergence, Postemergence): 5%; pest or weed control at 62 g/ha ([4]; post-emergence, Postemergence): 5%; pest or weed control at 125 g/ha ([4]; post-emergence, Postemergence): 0%
FC(F)c1cc(-c2ccccc2Oc2ncc(Br)cn2)no1 [Compound 62, 5-bromo-2-[2-[5-(difluoromethyl)-3-isoxazolyl]phenoxy]pyrimidine] | 90% | 90% | 95% | 95% | 95% | 100% | 100% | 100% | 75% | 100% | 100% | 100% | 25% | 80% | 95% | 100% | – | – | – | – | pest or weed control at 16 g/ha ([3]; post-emergence, Postemergence): 15%; pest or weed control at 31 g/ha ([3]; post-emergence, Postemergence): 20%; pest or weed control at 62 g/ha ([3]; post-emergence, Postemergence): 25%; pest or weed control at 125 g/ha ([3]; post-emergence, Postemergence): 65%; pest or weed control at 16 g/ha ([3]; pre-emergence, Preemergence): 20%; pest or weed control at 31 g/ha ([3]; pre-emergence, Preemergence): 40%; pest or weed control at 62 g/ha ([3]; pre-emergence, Preemergence): 65%; pest or weed control at 125 g/ha ([3]; pre-emergence, Preemergence): 85%; pest or weed control at 16 g/ha ([4]; post-emergence, Postemergence): 0%; pest or weed control at 31 g/ha ([4]; post-emergence, Postemergence): 5%; pest or weed control at 62 g/ha ([4]; post-emergence, Postemergence): 5%; pest or weed control at 125 g/ha ([4]; post-emergence, Postemergence): 10%; pest or weed control at 16 g/ha ([4]; pre-emergence, Preemergence): 0%; pest or weed control at 31 g/ha ([4]; pre-emergence, Preemergence): 65%; pest or weed control at 62 g/ha ([4]; pre-emergence, Preemergence): 60%; pest or weed control at 125 g/ha ([4]; pre-emergence, Preemergence): 65%
Fc1ccc(Oc2ncc(Cl)cn2)c(-c2cc(C(F)F)on2)c1Cl [Compound 96] | – | – | – | – | – | – | – | – | – | – | – | – | – | – | – | – | 0 | 0 | 0 | 10 | –
CC(F)(F)c1cc(-c2ccccc2Oc2ncc(Br)cn2)no1 [Compound 149] | – | – | – | – | – | – | – | – | – | – | – | – | – | – | – | – | 0 | 20 | 10 | 20 | –
Fc1cccc(Oc2ncc(Cl)cn2)c1-c1cc(C(F)(F)F)on1 [Compound 168, 5-chloro-2-[2-[5-(trifluoromethyl)-3-isoxazolyl]-3-fluorophenoxy]pyrimidine] | 90% | 80% | 95% | 95% | 55% | 100% | 100% | 100% | 75% | 95% | 95% | 95% | 80% | 80% | 95% | 100% | – | – | – | – | pest or weed control at 16 g/ha ([3]; post-emergence, Postemergence): 20%; pest or weed control at 31 g/ha ([3]; post-emergence, Postemergence): 60%; pest or weed control at 62 g/ha ([3]; post-emergence, Postemergence): 60%; pest or weed control at 125 g/ha ([3]; post-emergence, Postemergence): 75%; pest or weed control at 16 g/ha ([3]; pre-emergence, Preemergence): 10%; pest or weed control at 31 g/ha ([3]; pre-emergence, Preemergence): 100%; pest or weed control at 62 g/ha ([3]; pre-emergence, Preemergence): 100%; pest or weed control at 125 g/ha ([3]; pre-emergence, Preemergence): 100%; pest or weed control at 16 g/ha ([4]; post-emergence, Postemergence): 5%; pest or weed control at 31 g/ha ([4]; post-emergence, Postemergence): 5%; pest or weed control at 62 g/ha ([4]; post-emergence, Postemergence): 10%; pest or weed control at 125 g/ha ([4]; post-emergence, Postemergence): 10%
FC(F)c1cc(-c2c(Cl)cccc2Oc2ncc(Cl)cn2)no1 [Compound 179] | – | – | – | – | – | – | – | – | – | – | – | – | – | – | – | – | 0 | 0 | 10 | 10 | –
FC(F)(F)c1cc(-c2ccccc2Oc2ncc(Cl)cn2)no1 [Compound 200, 5-chloro-2-[2-[5-(trifluoromethyl)-3-isoxazolyl]phenoxy]pyrimidine] | 85% | 90% | 90% | 90% | 100% | 100% | 100% | 100% | 75% | 95% | 100% | 100% | 85% | 95% | 85% | 100% | – | – | – | – | pest or weed control at 16 g/ha ([3]; post-emergence, Postemergence): 25%; pest or weed control at 31 g/ha ([3]; post-emergence, Postemergence): 35%; pest or weed control at 62 g/ha ([3]; post-emergence, Postemergence): 45%; pest or weed control at 125 g/ha ([3]; post-emergence, Postemergence): 55%; pest or weed control at 31 g/ha ([3]; pre-emergence, Preemergence): 25%; pest or weed control at 62 g/ha ([3]; pre-emergence, Preemergence): 100%; pest or weed control at 125 g/ha ([3]; pre-emergence, Preemergence): 100%; pest or weed control at 16 g/ha ([4]; post-emergence, Postemergence): 5%; pest or weed control at 31 g/ha ([4]; post-emergence, Postemergence): 10%; pest or weed control at 62 g/ha ([4]; post-emergence, Postemergence): 10%; pest or weed control at 125 g/ha ([4]; post-emergence, Postemergence): 15%; pest or weed control at 16 g/ha ([4]; pre-emergence, Preemergence): 25%; pest or weed control at 31 g/ha ([4]; pre-emergence, Preemergence): 25%; pest or weed control at 62 g/ha ([4]; pre-emergence, Preemergence): 60%; pest or weed control at 125 g/ha ([4]; pre-emergence, Preemergence): 75%
FC(F)c1cc(-c2ccccc2Oc2ncc(Br)cn2)on1 [Compound 212] | – | – | – | – | – | – | – | – | – | – | – | – | – | – | – | – | 0 | 0 | 15 | 10 | –
Fc1ccc(Oc2ncc(Cl)cn2)c(-c2cc(C(F)(Cl)Cl)on2)c1 [Compound 221] | – | – | – | – | – | – | – | – | – | – | – | – | – | – | – | – | 0 | 5 | 10 | 30 | –
